Measurements published in ChEMBL document CHEMBL3507680, “University of Dundee, Gates Library screen for HepG2 cell viability”.

Experiment: Human HepG2 cell viability assay in 384 well format
Type: toxicity, cell-based
Parameters: dose 125 nL, time 70.5 hour; concentration not given beside the values
Conditions: HepG2 cells, read-out: Inhibition

| Structure (SMILES) | cytotoxicity at 70.5 h [%] |
| --- | --- |
| CN(Cc1ccc(O)cc1)C(=O)NCc1nnc2n1CCCCC2 | -2.24 |
| N#Cc1ncn(Cc2c(F)cccc2Cl)n1 | -5.34 |
| O=C1CC(c2ccc(C(F)(F)F)cc2)c2c(n3ccsc3nc2=O)N1 (stereo not drawn) | -22.1 |
| Cc1ccc(C(CCNCCN(C)C)C2CCOC(C)(C)C2)cc1 (stereo not drawn) | -5.89 |
| O=C(NCC1CC1)[C@H]1C[C@@H]2CN(S(=O)(=O)Cc3ccccc3)C[C@H]1O2 | 18.9 |
| COCC[C@]1(O)CCN(Cc2nc(C)cs2)C[C@H]1C | 15.3 |
| CC(=O)NCCCNCc1ccc(Cl)c2cccnc12 | 0.472 |
| O=C(COc1ccc(Cl)cc1)N1CCOCC1c1ncon1 (stereo not drawn) | -1.69 |
| O=C(CN1CCCCC1Cn1cncn1)Nc1ccncc1 (stereo not drawn) | 3.49 |
| CC(CNC(=O)N(C)Cc1ccco1)N1CCc2sccc2C1 (stereo not drawn) | 4.72 |
| CNS(=O)(=O)c1cccc(S(=O)(=O)Nc2ncc(C)s2)c1 | 3.06 |
| CNC(=O)c1ccc(CNCc2ccc(SC)c(OC)c2)cc1 | 27 |
| COc1ccc(CN(C)[C@@H]2CN(C(=O)c3ccnn3C)C[C@H]2O)cc1 | -3.38 |
| CN1C(=O)C(c2ccccc2)CC12CCN(CCN)CC2 (stereo not drawn) | -5.41 |
| Cc1ncc(C(=O)N2CCOC(C(=O)N3CCCCC3)C2)c(C)n1 (stereo not drawn) | -3.05 |
| CN(C)S(=O)(=O)N1CCC(c2ccncc2)CC1 | -10.2 |
| Cc1ccc(-c2ccc(C(=O)NCC(N)=O)c(F)c2)cc1 | 1.46 |
| CCN1CC(C(=O)NC(C)(C)C(=O)OC)CC1=O (stereo not drawn) | 3.17 |
| O=C(NCc1cnn(-c2ccc(F)cc2F)c1)C1CCCO1 (stereo not drawn) | -1.57 |
| CS(=O)(=O)CCC(=O)NC1CC(c2ccccc2Cl)C1 (stereo not drawn) | 2.56 |
| CC(C)NC(=O)NC[C@H]1OC[C@@H](NCc2cccs2)[C@@H]1O | 9.03 |
| CN(c1ncccc1CNC(=O)c1csnn1)C1CCCCC1 | 26.5 |
| COc1cc(NC(=O)c2cccc(N(C)C)c2)cc(OC)c1 | -7.19 |

| Structure (SMILES) | cytotoxicity at 70.5 h [%] |
| --- | --- |
| CCOc1cc(CNC(=O)NCc2nc(C)c(C)s2)ccn1 | -5.57 |
| Cc1cc(OC(F)F)c(C(=O)N2CCC(N(C)C)CC2)s1 | 31.3 |
| COCCCN1CC2(CCN(C(=O)c3ncc(F)cc3F)CC2)CC1=O | -9.33 |
| Cc1cccc(C2(O)CCN(C(=O)c3ccccn3)CC2)c1C | 1.09 |
| CC(C)N[C@@H]1CC[C@@H]1NC(=O)c1ccccc1OC(F)(F)C(F)F | 14.2 |
| COc1ccc(C(=O)COc2coc(CN3CCCCC3)cc2=O)cc1 | -5.06 |
| N#Cc1ccc(CN2CCCCC2Cn2cncn2)cc1 (stereo not drawn) | 11.7 |
| O=C(NC1CCCCC1)NC1CCCc2c1cnn2CCO (stereo not drawn) | -5.64 |
| O=C(NCc1ccco1)[C@@H]1CC[C@@H]2[C@@H](CCN2CC2CC2)O1 | -6.24 |
| NC(=O)C1CCN(C(=O)CCCc2ccc(Cl)c(Cl)c2)CC1 | -6.88 |
| O=C(NCC1(O)CCC1)c1c(O)cc(Cl)cc1Cl | -1.39 |
| CS(=O)(=O)N1CCc2c(nnn2CC2CC2)C1COCC1CC1 (stereo not drawn) | -1.97 |
| COCCC1(CO)CCCN(C(=O)CCC(F)(F)F)C1 (stereo not drawn) | -10.8 |
| CC(C)CC(=O)Nc1cc(C(=O)N(C)C(C)C)ccc1Cl | -8.37 |
| O=C1NCCO[C@H]2CN(C(=O)CCc3ccccc3Cl)CC[C@@H]12 | 22.6 |
| Cn1ccnc1CCC1CCCCN1Cc1nccn1C (stereo not drawn) | 14.9 |
| Clc1ccc(CN2CCN(Cn3nccc3-c3cccnc3)CC2)s1 | 6.58 |
| Cc1ccc(C(=O)NCCC2CN(C3CCCC3)CCO2)c(C)c1 (stereo not drawn) | -4.25 |
| CO[C@@H]1CC[C@@H](N(C)C(=O)COc2ccc(F)cc2)[C@H]1O | -28.5 |
| CCN(Cc1cccc(Cl)c1)Cn1nc(C)c2c(C)onc2c1=O | 25.1 |
| Cc1nc(NC(=O)NC2CC(=O)N(C(C)C)C2)nn1C(C)C (stereo not drawn) | -0.942 |
| NC(=O)CN1CC[C@@]2(O)CCCC[C@H]2[C@@H]1c1ccc2c(c1)OCO2 | -2.64 |
| COc1ccc2c(c1)CC(NCCCn1cc(C)cn1)CC2 (stereo not drawn) | 1.45 |

| Structure (SMILES) | cytotoxicity at 70.5 h [%] |
| --- | --- |
| Cc1noc(CN2CCCC2c2noc(C3CC3)n2)n1 (stereo not drawn) | 20.7 |
| CC(C)NC(=O)C1CN(C(=O)Cc2cccc(F)c2)CC12CCOCC2 (stereo not drawn) | 10.1 |
| COc1cccc(-c2noc(CN3CCOCC3C)n2)c1 (stereo not drawn) | -2.13 |
| COc1ccc(C(=O)N2CC[C@@]3(O)CCCC[C@H]3C2)cc1OC | 5.36 |
| Fc1ccc(Cn2ncc3c2CN(c2ncccn2)C3)cc1 | -0.987 |
| COc1ccc(F)c(-c2ncccc2C(=O)N2C[C@H]3CC[C@@H]2C3)c1 | -9.45 |
| CC(=O)Nc1ccc2c(c1)nc1n2[C@@H](CNCc2ccccc2)COC1 | -11.7 |
| O=C(CCc1cccc(F)c1F)N1CCN(Cc2ccco2)CC1 | -8.06 |
| Cc1cccc(OC2CCN(C(=O)c3ccc4c(c3)OCO4)CC2)n1 | -7.71 |
| Cc1ccc(Br)cc1NC(=O)NC1CCC2(C1)OCCO2 (stereo not drawn) | 18.1 |
| Cc1ccc2c(n1)N(CC(C)C)CCN(S(C)(=O)=O)C2 | -6.3 |
| c1ccc(N2CCOC(Cc3cccnc3)C2)cc1 (stereo not drawn) | -7.14 |
| Cc1nc(CC(=O)N2CCCCC2c2ccn3ccnc3n2)cs1 (stereo not drawn) | -12.6 |
| COc1ccc(NC(C)=O)cc1S(=O)(=O)Nc1ccon1 | -5.66 |
| Cc1ccc(C2CN(c3nnc(C(F)F)s3)CCO2)c(C)c1 (stereo not drawn) | -4.44 |
| CC(C)c1cc(N[C@@H](CO)C(N)=O)n2nccc2n1 | 31.2 |
| CC(NC(=O)Nc1nnc(-c2ccccn2)s1)C(=O)OC(C)(C)C (stereo not drawn) | -11.7 |
| CCOC(=O)N1CCC(C(=O)Nc2nnc(C(F)(F)F)[nH]2)CC1 | 5.31 |
| CC(c1cccc(F)c1)N1CCN(Cc2nccn2C)CC1 (stereo not drawn) | -9.9 |
| O=C(c1cccnc1O)N1CCOC(c2ccc(Cl)cc2)C1 (stereo not drawn) | -0.483 |
| CC(C)CCN1CC2(CCN(C3CCCOC3)CC2)OC1=O (stereo not drawn) | -8.74 |
| CN1CC(NC(=O)Cc2csc(C(C)(C)C)n2)CCC1=O (stereo not drawn) | 20.1 |
| Cc1nc(CC(C)C)cc(C(=O)N2C[C@@H](CN(C)C)[C@@H](CO)C2)n1 | 6.25 |

| Structure (SMILES) | cytotoxicity at 70.5 h [%] |
| --- | --- |
| O=c1ccc(-c2cccs2)nn1CN1CCN(c2ccccn2)CC1 | -23.6 |
| CS(=O)(=O)c1ccc(NC(=O)N2C[C@H](O)[C@@H](N3CCOCC3)C2)cc1 | 20.5 |
| COCC1CC2(CCN(C(=O)c3ccc(C)nc3)CC2)CO1 (stereo not drawn) | -5.4 |
| Cc1cc2c(cc1Cl)C=CC1(CCN(CC(=O)N3CCOCC3)CC1)O2 | 25.7 |
| CCn1cc(NC(=O)C(C)n2ncc(Cl)c2C)c(C(=O)NCC(C)C)n1 (stereo not drawn) | -3.04 |
| CC1CN(c2ncnc3cccc(F)c23)CCO1 (stereo not drawn) | 10.6 |
| Cc1ccc(C2CCCN2Cc2nc3c(cnn3C)c(=O)[nH]2)cc1C (stereo not drawn) | -15.6 |
| COc1cc(CN(C)C(=O)Cc2c(C)nn(C)c2C)ccc1OC(F)F | 3.07 |
| CNc1ncc(CN(C)C(=O)c2ccccc2C2CCNC2)cn1 (stereo not drawn) | 1.83 |
| Cn1cc(CN2CCCC3(CCN(Cc4cccnc4)C3=O)C2)cn1 (stereo not drawn) | -13.4 |
| CC(C)(C(=O)NCCCC(N)=O)c1cccc(Br)c1 | -8.19 |
| COc1ccc(CN(C)C(=O)CSc2nnc(N)s2)c(OC)c1OC | -5.3 |
| COCCN(Cc1cccs1)c1nc(CCN)nc2ccccc12 | -9.93 |
| COCc1noc(-c2ccc(N(C)Cc3nccs3)nc2)n1 | -6.18 |
| COc1cc(Cl)ccc1C(=O)NCC(=O)Nc1nccs1 | -5.69 |
| NC1(c2nc(-c3cccs3)cc(=O)[nH]2)CCCC1 | 8.08 |
| c1cnc(-c2nc(CNC3CCc4ncnn4C3)cs2)nc1 (stereo not drawn) | -6.68 |
| O=C1OC2(CCNCC2)CN1CC(=O)N1CCC1c1cccs1 (stereo not drawn) | -6.81 |
| Cc1ccc(NC(=O)NCC2CCS(=O)(=O)C2)cc1Cl (stereo not drawn) | 0.575 |
| CNC(=O)CN1CCOCC12CCN(Cc1ccncc1)CC2 | -16.2 |
| Cc1cc(NC(=O)CN2CCc3cncnc3C2)on1 | 3.49 |
| O=C1O[C@@H]2CN(Cc3ccccc3F)C[C@@H]2N1CCCN1CCOCC1 | 8.16 |
| CN(Cc1nccn1C)C1CCN(CCc2ccccn2)CC1 | 0.568 |

| Structure (SMILES) | cytotoxicity at 70.5 h [%] |
| --- | --- |
| Cc1ccc2c(c1)C(NCc1nccn1Cc1ccccc1)CCCO2 (stereo not drawn) | -13.4 |
| Cc1noc(C)c1CN1CCCCC1CCc1ccc(O)cc1 (stereo not drawn) | -1.36 |
| Cc1nn(C)c(C)c1C(C)NCc1ccc(OC(C)C)cc1 (stereo not drawn) | -1.94 |
| CC(C)C(=O)NCc1ccc(N(C)C)cc1 | -4.78 |
| Cc1cccc(CN2C[C@@H]3CN(C(=O)NC(C)C)C[C@@H]3C2=O)c1 | -11.4 |
| COc1cc(CN2CC[C@@H](N3CCCCCC3)[C@H](O)C2)cc(Cl)c1OC | -4.33 |
| CC(C)N(C)CC(=O)Nc1ccc(-n2ccc(C(N)=O)n2)cc1 | -2.55 |
| Cc1nccn1C1CCCN(C(=O)COCC(F)(F)F)C1 (stereo not drawn) | -7.9 |
| Cc1cc(C)n(CCC(=O)N2CCCC(c3cc(C(N)=O)[nH]n3)C2)n1 (stereo not drawn) | 29.3 |
| CCC(C)NS(=O)(=O)Cc1cccc(NC(=O)c2ccc[nH]2)c1 (stereo not drawn) | -2.71 |
| COc1c(C2CCCN2C(=O)Cc2c(C)noc2C)c(C)nn1C (stereo not drawn) | 11 |
| COCc1nc(CNC(=O)C(C)n2ccnc2C(C)C)no1 (stereo not drawn) | -9.39 |
| Cn1cc(C(=O)CC2CCCN2C(=O)c2ccc3[nH]ncc3c2)cn1 (stereo not drawn) | 30 |
| O=C(Nc1cccnc1)[C@H]1C[C@@H]2CN(S(=O)(=O)C3CC3)C[C@H]1O2 | -4.16 |
| CC(c1ccncc1)N(CCN(C)C)C(=O)Nc1ccc(Cl)cc1 (stereo not drawn) | -14.7 |
| Cc1ccc(C(=O)NCC(C)CN2CCCC2=O)c(=O)[nH]1 (stereo not drawn) | -113 |
| O=C(c1cccc2c1OCCO2)N1CCCCC1Cn1cccn1 (stereo not drawn) | -6.1 |
| CCc1nc(CN2CCN(C(=O)c3csc(C(C)C)n3)CC2)no1 | 33.2 |
| CCc1ncncc1C(=O)N1CCN(Cc2ccco2)CC1 | 10.8 |
| CCn1cc2c(n1)CN(Cc1sccc1C)CC2COCC1CC1 (stereo not drawn) | -7.71 |
| Cc1cc(NC(=O)NCCc2cccnc2)n(C)n1 | -3.88 |
